Measured values: patent publication US6133294A (priority 1999, dated 2000)

How the values were obtained:
Assay type in all cases: in vivo
Erysiphe graminis = assay: Powdery Mildew of Wheat (Erysiphe graminis--ERYSGT); conditions: wheat (cultivar Monon), 100 ppm spray to run off, inoculated after 24 hours; for pest or weed control at 100 ppm: Blumeria graminis, 1DP, read-out: control of plant disease, ERYSGT 1DP
Experimental: (§1) Compound Formulation: Compound formulation was accomplished by dissolving technical materials in acetone, with serial dilutions then made in acetone to obtain desired rates. Final treatment volumes were obtained by adding nine volumes 0.05% aqueous Tween-20 or Triton X-100, depending upon the pathogen.
Powdery Mildew of Wheat (Erysiphe graminis--ERYSGT): Wheat (cultivar Monon) was grown in a soilless peat-based potting mixture (Metromix) until the seedlings were 1-2 leaf (BBCH 12). These plants were then sprayed to run off with the test compound at a rate of 100 ppm. After 24 hours the test plants were inoculated with Erysiphe graminis by dusting spores from stock plants onto the test plants. The plants were then transferred to the greenhouse until disease developed on the untreated control plants.
(§2) the following table presents the activity of typical compounds of the present invention when evaluated in these experiments. The effectiveness of the test compounds in controlling disease was rated using the following scale: […]

Leptosphaeria nodorum = assay: Glume blotch of wheat (Leptosphaeria nodorum--LEPTNO); conditions: wheat (cultivar Monon), 100 ppm spray to run off, inoculated after 24 hours; for pest or weed control at 100 ppm: Parastagonospora nodorum, 1DP, read-out: control of plant disease, LEPTNO 1DP
Experimental: as §1
(§3) Glume blotch of wheat (Leptosphaeria nodorum--LEPTNO): Wheat (cultivar Monon) was grown from seed in a soilless peat-based potting mixture (Metromix) until the seedlings were 1-2 leaf (BBCH 12). These plants were then sprayed to run off with the test compound at a rate of 100 ppm. After 24 hours the test plants were inoculated with an aqueous spore suspension of Leptosphaeria nodorum. The plants were then transferred to the greenhouse until disease developed on the untreated control plants.
as §2

Puccinia recondita = assay: Brown rust (Puccinia recondita--PUCCRT); conditions: wheat (cultivar Monon), 100 ppm spray to run off, inoculated after 24 hours; for pest or weed control at 100 ppm: Puccinia recondita, 1DP, read-out: control of plant disease, PUCCRT 1DP
Experimental: as §1
as §3, with “Brown rust (Puccinia recondita--PUCCRT):” for “Glume blotch of wheat (Leptosphaeria nodorum--LEPTNO):”, “[…]).” for “1-2 leaf (BBCH 12).”, “Puccinia recondita.” for “Leptosphaeria nodorum.”
as §2

Phytophthora infestans = assay: whole plant or invertebrate; conditions: for control of plant disease, PHYTIN 1DP: tomatoes (cultivar Rutgers), 100 ppm spray to run off, inoculated after 24 hours; for pest or weed control at 100 ppm: Phytophthora infestans, 24 h, read-out: control of plant disease, PHYTIN 1DP

SMILES	control of plant disease, ERYSGT 1DP (Erysiphe graminis)	control of plant disease, LEPTNO 1DP (Leptosphaeria nodorum)	control of plant disease, PUCCRT 1DP (Puccinia recondita)	control of plant disease, PHYTIN 1DP (Phytophthora infestans)	pest or weed control at 100 ppm (Erysiphe graminis)	pest or weed control at 100 ppm (Leptosphaeria nodorum)	pest or weed control at 100 ppm (Puccinia recondita)	pest or weed control at 100 ppm (Phytophthora infestans)
CCc1noc(-c2cccc(OCc3ccccc3C(=NOC)C(=O)NC)n2)n1 [Example 85]	+ (25-74% control of plant disease)	- (0-24% control of plant disease)	++ (75-100% control of plant disease)	- (0-24% control of plant disease)				
CNC(=O)C(=NOC)c1ccccc1COc1ncc(-c2noc(CSc3ccccc3)n2)cc1Cl [Example 24]					0 to 24%	75 to 100%	75 to 100%	75 to 100%
CNC(=O)C(=NOC)c1ccccc1COc1ccc(-c2nc(C3CCCCC3)no2)cn1 [Example 73]					75 to 100%	0 to 24%	75 to 100%	25 to 74%
CNC(=O)C(=NOC)c1ccccc1COc1ccc(-c2nc(CC(C)C)no2)cn1 [Example 75]					75 to 100%	25 to 74%	75 to 100%	0 to 24%
CNC(=O)C(=NOC)c1ccccc1COc1ccc(-c2cc(C(C)(C)C)on2)cn1 [Example 43]					75 to 100%	75 to 100%	75 to 100%	75 to 100%
CCc1nnc(-c2cnc(OCc3ccccc3C(=NOC)C(=O)NC)c(Cl)c2)o1 [Example 5]					75 to 100%	75 to 100%	75 to 100%	75 to 100%
COC=C(C(=O)OC)c1ccccc1COc1ncc(-c2noc(C(C)(C)C)n2)cc1Cl [Example 98]					75 to 100%	75 to 100%	75 to 100%	0 to 24%
CNC(=O)C(=NOC)c1ccccc1COc1ncc(-c2noc(C3CCCC3)n2)cc1Cl [Example 13]					75 to 100%	75 to 100%	75 to 100%	0 to 24%
CNC(=O)C(=NOC)c1cccc(Cl)c1COc1ncc(-c2noc(C(F)(F)F)n2)cc1Cl [Example 34]	++ (75-100% control of plant disease)	++ (75-100% control of plant disease)	++ (75-100% control of plant disease)	- (0-24% control of plant disease)				
CNC(=O)C(=NOC)c1ccccc1COc1cccc(-c2nc(C(C)C)no2)n1 [Example 87]					75 to 100%	75 to 100%	75 to 100%	75 to 100%
CNC(=O)C(=NOC)c1ccccc1COc1ncc(-c2nc(N(C)C)no2)cc1Cl [Example 64]					75 to 100%	75 to 100%	75 to 100%	0 to 24%
CNC(=O)C(=NOC)c1ccccc1COc1ncc(-c2nc(N3CCCCC3)no2)cc1Cl [Example 69]	++ (75-100% control of plant disease)	++ (75-100% control of plant disease)	++ (75-100% control of plant disease)	++ (75-100% control of plant disease)				
CNC(=O)C(=NOC)c1ccccc1COc1ccc(-c2noc(C)n2)cn1 [Example 10]					75 to 100%	75 to 100%	75 to 100%	0 to 24%
CNC(=O)C(=NOC)c1ccccc1COc1ccc(-c2nc(C(C)(C)C)no2)cn1 [Example 65]					75 to 100%	75 to 100%	75 to 100%	0 to 24%
CCc1cc(-c2cnc(OCc3ccccc3C(=NOC)C(=O)NC)c(Cl)c2)on1 [Example 76]					75 to 100%	75 to 100%	75 to 100%	25 to 74%
CNC(=O)C(=NOC)c1ccccc1COc1ncc(-c2nnc(C3CC3)o2)cc1Cl [Example 1, Benzeneacetamide, 2-[[[3-chloro-5-(5-cyclopropyl-1,3,4-oxadiazol-2-yl)-2-pyridinyl]oxy]methyl]-α-(methoxyimino)-N-methyl-]					0 to 24%	0 to 24%	75 to 100%	75 to 100%
CNC(=O)C(=NOC)c1ccccc1COc1ncc(-c2noc(CC(C)(C)C)n2)cc1Cl [Example 17]					75 to 100%	75 to 100%	75 to 100%	0 to 24%
CCc1noc(-c2nc(OCc3ccccc3C(=NOC)C(=O)NC)ccc2Cl)n1 [Example 81]					75 to 100%	25 to 74%	75 to 100%	25 to 74%
